The source made the active and inactive calls. No cut-off for these calls is given here.
Key:
[1] = target: Sigma non-opioid intracellular receptor 1 (Cavia porcellus, UniProt Q60492); type: cell membranes, Brain, Membrane;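 note: radioligand displacement of [3H]-(+)-pentazocine binding to sigma1 receptor in guinea pig brain membranes, read by scintillation counting after a 120 min incubation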
Description: Displacement of [3H]-(+)-pentazocine from sigma1 receptor in guinea pig brain membrane measured after 120 mins by scintillation counting method

[2] = Selectivity index, ratio of Ki for displacement of [3H]DTG from sigma 2 receptor in rat liver membranes to Ki for displacement of [3H]-(+)-pentazocine from sigma1 receptor in guinea pig brain membrane; type: cell membranes
Acetylcholinesterase = Acetylcholinesterase (Homo sapiens, UniProt P22303); assay: Inhibition of human recombinant AChe using acetylthiocholine iodide as substrate incubated for 10 mins by DTNB reagent based Ellman's method
Chain of Acetylcholinesterase (P22303 whole entry): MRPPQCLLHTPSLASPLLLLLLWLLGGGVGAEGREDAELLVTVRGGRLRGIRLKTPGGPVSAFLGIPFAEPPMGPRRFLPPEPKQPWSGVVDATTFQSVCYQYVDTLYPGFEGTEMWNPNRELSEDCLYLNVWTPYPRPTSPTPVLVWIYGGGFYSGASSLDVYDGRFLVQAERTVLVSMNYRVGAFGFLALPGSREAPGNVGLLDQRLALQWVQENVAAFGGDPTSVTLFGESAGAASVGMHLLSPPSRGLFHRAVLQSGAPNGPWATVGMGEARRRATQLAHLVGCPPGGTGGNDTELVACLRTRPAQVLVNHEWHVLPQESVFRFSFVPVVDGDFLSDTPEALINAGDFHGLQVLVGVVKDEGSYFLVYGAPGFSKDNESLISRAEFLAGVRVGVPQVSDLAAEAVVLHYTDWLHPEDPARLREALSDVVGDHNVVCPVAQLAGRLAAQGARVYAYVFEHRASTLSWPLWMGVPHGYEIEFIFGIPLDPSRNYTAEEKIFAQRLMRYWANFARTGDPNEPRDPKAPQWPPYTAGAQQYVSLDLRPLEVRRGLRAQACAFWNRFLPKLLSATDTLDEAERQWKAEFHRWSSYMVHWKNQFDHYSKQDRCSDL

Cholinesterase = Cholinesterase (Homo sapiens, UniProt P06276); assay: Inhibition of human recombinant BuChe using butyrylthiocholine iodide as substrate incubated for 10 mins by DTNB reagent based Ellman's method
Chain of Cholinesterase (P06276 whole entry): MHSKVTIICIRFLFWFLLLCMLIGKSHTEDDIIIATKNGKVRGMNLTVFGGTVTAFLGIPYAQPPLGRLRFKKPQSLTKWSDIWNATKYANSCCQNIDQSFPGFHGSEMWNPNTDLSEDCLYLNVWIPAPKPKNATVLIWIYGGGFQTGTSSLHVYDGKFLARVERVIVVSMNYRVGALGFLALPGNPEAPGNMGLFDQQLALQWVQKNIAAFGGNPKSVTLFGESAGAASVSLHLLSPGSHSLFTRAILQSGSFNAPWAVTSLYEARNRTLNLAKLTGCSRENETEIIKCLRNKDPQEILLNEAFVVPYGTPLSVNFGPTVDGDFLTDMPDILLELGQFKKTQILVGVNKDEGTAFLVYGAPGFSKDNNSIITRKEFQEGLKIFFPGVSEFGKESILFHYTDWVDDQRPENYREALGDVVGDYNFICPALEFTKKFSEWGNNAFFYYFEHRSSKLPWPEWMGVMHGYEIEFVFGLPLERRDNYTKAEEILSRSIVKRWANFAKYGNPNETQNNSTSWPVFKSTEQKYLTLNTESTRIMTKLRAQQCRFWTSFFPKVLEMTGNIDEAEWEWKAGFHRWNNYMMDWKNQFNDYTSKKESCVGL

[3] = target: Glutamate receptor ionotropic, NMDA 2B (Homo sapiens, UniProt Q13224); assay: Displacement of [3H]ifenprodil from recombinant human GluN2B NMDA receptor (unknown origin) expressed in dexamethasone-induced mouse L-M(TK-) cell after 120 mins by microbeta scintillation counting method; type: cell-based
Chain of Glutamate receptor ionotropic, NMDA 2B (Q13224 whole entry): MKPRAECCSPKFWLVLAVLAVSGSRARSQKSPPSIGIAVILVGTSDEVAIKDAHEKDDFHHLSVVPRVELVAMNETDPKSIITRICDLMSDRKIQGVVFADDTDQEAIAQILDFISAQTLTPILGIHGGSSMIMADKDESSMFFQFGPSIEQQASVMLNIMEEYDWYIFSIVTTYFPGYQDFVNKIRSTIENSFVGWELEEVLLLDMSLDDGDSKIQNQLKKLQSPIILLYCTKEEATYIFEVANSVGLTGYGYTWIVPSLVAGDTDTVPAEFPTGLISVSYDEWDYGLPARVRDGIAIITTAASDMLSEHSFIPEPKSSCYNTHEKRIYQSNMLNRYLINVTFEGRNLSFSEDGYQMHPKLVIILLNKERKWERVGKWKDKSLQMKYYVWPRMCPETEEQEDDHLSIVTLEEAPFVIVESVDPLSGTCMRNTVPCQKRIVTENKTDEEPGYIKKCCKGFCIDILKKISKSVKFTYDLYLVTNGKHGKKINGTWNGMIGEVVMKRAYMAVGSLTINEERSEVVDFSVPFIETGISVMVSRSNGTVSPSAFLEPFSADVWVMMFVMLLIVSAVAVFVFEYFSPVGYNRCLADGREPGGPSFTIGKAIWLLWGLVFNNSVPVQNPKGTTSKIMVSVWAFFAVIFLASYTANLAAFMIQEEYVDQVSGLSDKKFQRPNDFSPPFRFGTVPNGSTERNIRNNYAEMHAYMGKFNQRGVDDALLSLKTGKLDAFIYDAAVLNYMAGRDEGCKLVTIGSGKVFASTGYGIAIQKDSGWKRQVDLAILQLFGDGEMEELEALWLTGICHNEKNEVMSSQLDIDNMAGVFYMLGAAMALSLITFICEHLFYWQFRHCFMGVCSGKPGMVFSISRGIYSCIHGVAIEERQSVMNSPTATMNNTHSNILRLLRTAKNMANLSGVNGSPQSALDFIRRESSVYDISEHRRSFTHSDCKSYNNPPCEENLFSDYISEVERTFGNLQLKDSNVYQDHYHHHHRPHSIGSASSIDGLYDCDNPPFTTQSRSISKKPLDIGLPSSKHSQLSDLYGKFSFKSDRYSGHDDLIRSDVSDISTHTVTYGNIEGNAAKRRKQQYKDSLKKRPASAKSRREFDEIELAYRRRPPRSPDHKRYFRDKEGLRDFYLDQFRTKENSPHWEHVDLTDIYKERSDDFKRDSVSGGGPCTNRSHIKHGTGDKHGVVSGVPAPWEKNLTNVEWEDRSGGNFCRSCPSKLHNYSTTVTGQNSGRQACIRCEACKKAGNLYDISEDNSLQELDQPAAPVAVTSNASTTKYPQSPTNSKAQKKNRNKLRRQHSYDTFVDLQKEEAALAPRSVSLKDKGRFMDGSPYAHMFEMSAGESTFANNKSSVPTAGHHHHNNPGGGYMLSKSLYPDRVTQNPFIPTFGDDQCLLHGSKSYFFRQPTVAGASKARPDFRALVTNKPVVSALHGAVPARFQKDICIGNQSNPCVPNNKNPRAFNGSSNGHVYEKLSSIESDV

[4] = target: T1, Sigma intracellular receptor 2 (Rattus norvegicus, UniProt Q5U3Y7); assay: Displacement of [3H]DTG from sigma 2 receptor in rat liver membranes measured after 120 mins by scintillation counting method; type: cell membranes, Membrane
T1 sequence (Q5U3Y7 whole entry): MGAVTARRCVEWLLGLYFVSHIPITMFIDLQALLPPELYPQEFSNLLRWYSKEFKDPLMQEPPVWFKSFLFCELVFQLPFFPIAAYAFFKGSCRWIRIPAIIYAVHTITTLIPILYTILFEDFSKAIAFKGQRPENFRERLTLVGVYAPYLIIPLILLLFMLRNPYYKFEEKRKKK

Danio rerio [5] = species: Danio rerio; assay: Neuroprotective activity against Abeta42 induced zebrafish AD model assessed as reversal of reduction in synaptic integrity at 10 uM measured after 5 days; type: functional, organism-based; settings: time 5.0 day
SH-SY5Y [6] = assay: Glio-protective activity in Abeta42 induced stress human SH-SY5Y cells measured after 72 hrs by CTG luminescence assay; type: functional, cell-based
SH-SY5Y [7] = assay: Glio-protective activity in H2O2 induced human SH-SY5Y cells measured after 48 hrs by MTT assay; type: functional, cell-based
[8] = Hepatotoxicity in […] cells assessed as reduction in cell viability at 10 to 80 uM measured after 24 hrs by CTG- luminescence assay; type: toxicity, cell-based; settings: human
[9] = Selectivity index, ratio of Ki for displacement of [3H]-(+)-pentazocine from sigma1 receptor in guinea pig brain membrane to Ki for displacement of [3H]DTG from sigma 2 receptor in rat liver membranes; type: cell membranes
Danio rerio [10] = species: Danio rerio; assay: Anti-neuroinflammatory activity in Abeta42 induced zebrafish AD model assessed as reduction in number of activated microglia relative to control; type: functional; set-up: scale not given: the % may be the effect or the level left
SH-SY5Y [11] = assay: Neuroprotective activity in Abeta42 induced stress human SH-SY5Y cell model measured after 72 hrs by CTG luminescence assay; type: functional, cell-based
SH-SY5Y [12] = assay: Neuroprotective activity in H2O2 induced stress human SH-SY5Y cell model measured after 48 hrs by MTT assay; type: functional, cell-based
PC-12 [13] = assay: Neuroprotective activity in […] PC-12 cells assessed as induction of NGF-mediated neurite outgrowth measured after 4 days by measuring fold change; type: functional, Rattus norvegicus; settings: time 4 day
Danio rerio [14] = species: Danio rerio; assay: Neuroprotective activity against zebrafish AD model assessed as reversal of reduction in synaptic integrity at 10 uM measured after 5 days relative to control; type: functional; set-up: scale not given: the % may be the effect or the level left; settings: time 5 day
Danio rerio [15] = species: Danio rerio; assay: Neuroprotective activity against zebrafish AD model assessed as reversal of reduction in synaptic integrity at 10 uM measured after 5 days in presence of Abeta42 relative to control; type: functional; set-up: scale not given: the % may be the effect or the level left; settings: time 5 day
PC-12 [16] = assay: Neuroprotective activity in […] PC-12 cells assessed as induction of NGF-mediated neurite sprouting measured after 4 days by measuring fold change; type: functional, Rattus norvegicus; settings: time 4 day
P2X purinoceptor 7 = target: T2, P2X purinoceptor 7 (Homo sapiens, UniProt Q99572); assay: Antagonist activity at human P2X7 receptor expressed in HEK293 cells assessed as reduction in YO-PRO-1 iodide dye uptake preincubated for 30 mins followed by YO-PRO-1 iodide addition and measured after 120 mins by fluorescence plate reader analysis; type: cell-based
T2 sequence (Q99572 whole entry): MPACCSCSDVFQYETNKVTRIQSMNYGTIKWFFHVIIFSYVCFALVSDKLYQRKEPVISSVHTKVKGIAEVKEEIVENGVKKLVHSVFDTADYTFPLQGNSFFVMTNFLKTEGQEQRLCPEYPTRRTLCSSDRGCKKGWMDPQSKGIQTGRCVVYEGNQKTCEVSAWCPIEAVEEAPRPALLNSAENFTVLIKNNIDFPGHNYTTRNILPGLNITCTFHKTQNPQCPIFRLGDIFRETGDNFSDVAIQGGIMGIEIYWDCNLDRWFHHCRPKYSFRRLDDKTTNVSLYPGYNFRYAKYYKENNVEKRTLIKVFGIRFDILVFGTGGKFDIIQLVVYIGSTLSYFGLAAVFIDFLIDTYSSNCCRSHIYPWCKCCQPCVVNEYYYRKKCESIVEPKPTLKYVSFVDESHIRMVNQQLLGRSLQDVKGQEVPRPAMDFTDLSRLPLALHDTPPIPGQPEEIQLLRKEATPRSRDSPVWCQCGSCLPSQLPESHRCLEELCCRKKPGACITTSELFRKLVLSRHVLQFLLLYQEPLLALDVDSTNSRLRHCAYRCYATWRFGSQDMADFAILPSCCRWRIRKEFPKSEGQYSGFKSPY

Chain of Sigma non-opioid intracellular receptor 1 (Q60492 whole entry): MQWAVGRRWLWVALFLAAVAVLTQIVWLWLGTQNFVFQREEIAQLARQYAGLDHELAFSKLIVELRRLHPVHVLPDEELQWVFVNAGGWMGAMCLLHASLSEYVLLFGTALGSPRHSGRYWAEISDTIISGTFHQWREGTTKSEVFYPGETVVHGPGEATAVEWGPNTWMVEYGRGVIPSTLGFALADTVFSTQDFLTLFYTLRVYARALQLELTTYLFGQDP

Compound | Ki [1] [nM] | Ratio Ki [2] | IC50 (Acetylcholinesterase) [nM] | IC50 (Cholinesterase) [nM] | Ki [3] [nM] | Ki [4] [nM] | further results
CCN1CCN(CCC(=O)Nc2nc3c(C)cccc3s2)CC1 | 543 | 2.21 | 20600 | > 40000 | > 1000 | 1200 | –
Cc1cccc2sc(NC(=O)CCN3CCN(C(C)C)CC3)nc12 | 1300 | 1.38 | 2750 | 14400 | > 1000 | 1800 | –
Cc1cccc2sc(NC(=O)CCN3CCN(C4CCCCC4)CC3)nc12 | 24 | 9.71 | 10900 | 3190 | 213 | 233 | Activity (Danio rerio [5]): Active; Activity (SH-SY5Y [6]): Active; Activity (SH-SY5Y [7]): Active; IC50 at 24 h [8]: 47100 nM
CCOCCN1CCN(CCC(=O)Nc2nc3c(C)cccc3s2)CC1 | 575 | 2.78 | 20100 | 39000 | > 1000 | 1600 | –
CC(=O)c1ccc(N2CCN(CCC(=O)Nc3nc4c(C)cccc4s3)CC2)cc1 | 1000 | – | 3820 | 3040 | 187 | > 1000 | –
CCCCCCN1CCN(CCC(=O)Nc2nc3c(C)cccc3s2)CC1 | 238 | – | > 40000 | 29300 | 115 | 158 | Activity (SH-SY5Y [6]): Active; Activity (SH-SY5Y [7]): Active; Ratio Ki [9]: 1.5
Cc1cccc2sc(NC(=O)CCN3CCN(C4CCN(C)CC4)CC3)nc12 | 6000 | – | 10500 | > 40000 | > 1000 | 3600 | Ratio Ki [9]: 1.66
Cc1cccc2sc(NC(=O)CCN3CCN(Cc4cc(F)ccc4F)CC3)nc12 | 1000 | – | 12600 | 7660 | > 1000 | > 1000 | –
Cc1cccc2sc(NC(=O)CCN3CCN(Cc4ccccc4F)CC3)nc12 | 1700 | – | 5220 | 2900 | > 1000 | > 1000 | –
COc1cc2c(cc1OC)C(=O)C(CC1CCN(Cc3ccccc3)CC1)C2 (configuration not stated) [DONEPEZIL] | – | – | – | – | – | – | Activity (Danio rerio [10]): 4.3%
Cc1cccc2sc(NC(=O)CCN3CCN(C(C)(C)C)CC3)nc12 | 147 | 1.36 | 810 | > 40000 | 476 | 200 | –
Cc1cccc2sc(NC(=O)CCN3CCN(CC4CCCO4)CC3)nc12 (racemic) | 109 | 45.9 | 7910 | 12800 | 457 | 5000 | Activity (Danio rerio [5]): Active; Activity (SH-SY5Y [11]): Active; Activity (SH-SY5Y [12]): Active; IC50 at 24 h [8]: 46300 nM; fold change (FC) (PC-12 [13]): 2.4
Cc1cccc2sc(NC(=O)CCN3CCN(Cc4ccc(C(C)(C)C)cc4)CC3)nc12 | 238 | – | 40000 | 9320 | > 1000 | 238 | –
Cc1cccc2sc(NC(=O)CCN3CCN(CC4CCCCC4)CC3)nc12 | 35 | 14.8 | 340 | 7650 | 60 | 519 | Activity (Danio rerio [5]): Active; Activity (SH-SY5Y [11]): Active; Activity (SH-SY5Y [12]): Active; IC50 at 24 h [8]: 30700 nM
CCCCN1CCN(CCC(=O)Nc2nc3c(C)cccc3s2)CC1 | 204 | 5.88 | > 40000 | 30100 | 229 | 1200 | –
Cc1cccc2sc(NC(=O)CCN3CCN(CCN(C(C)C)C(C)C)CC3)nc12 | 809 | – | 240 | > 40000 | 202 | 121 | Activity (Danio rerio [5]): Active; Activity (Danio rerio [14]): 15.1%; Activity (SH-SY5Y [11]): Active; Activity (Danio rerio [15]): 37.1%; Activity (SH-SY5Y [12]): Active; fold change (FC) (PC-12 [16]): 3.7; Ratio Ki [9]: 6.68
Cc1ccccc1N1CCN(CCC(=O)Nc2nc3c(C)cccc3s2)CC1 | 1000 | – | > 40000 | 8630 | > 1000 | > 1000 | –
Cc1cccc2sc(NC(=O)CCN3CCN(Cc4cccc5ccccc45)CC3)nc12 | 1000 | – | 19300 | 32900 | > 1000 | > 1000 | –
Cc1cccc2sc(NC(=O)CCN3CCN(CCN(C)C)CC3)nc12 | 1000 | – | 480 | > 40000 | > 1000 | > 1000 | IC50 (P2X purinoceptor 7): 2150 nM
Cc1cccc2sc(NC(=O)CCN3CCN(c4ncccn4)CC3)nc12 | 505 | > 1.98 | 30000 | > 40000 | > 1000 | > 1000 | IC50 (P2X purinoceptor 7): 1330 nM
Cc1cccc2sc(NC(=O)CCN3CCN(c4ccccn4)CC3)nc12 | 1000 | – | 17200 | > 40000 | > 1000 | > 1000 | IC50 (P2X purinoceptor 7): 1400 nM
